Measured values published in patent US20150329467A1, “FLUORINE ATOM-CONTAINING PHENOL COMPOUND” (FUJIFILM CORPORATION, priority 2012, published 2015).
“Also recorded” adds a separate entry of the source.

Assay: Solubility check: coated film of Cytop CTL-809M fluororesin solution observed by optical microscope for bleed-out or undissolved compound
Assay type: physicochemical
Settings: compound at 0.3 wt % with respect to Cytop CTL-809M in perfluorotributylamine/1,1,1,3,3,3-hexafluoropropan-2-ol/Cytop CTL-809M=91/5/4 (parts by weight); film 1.5 μm on glass, dried
Experimental: To a mixed solution of perfluorotributylamine/1,1,1,3,3,3-hexafluoropropan-2-ol/Cytop CTL-809M (manufactured by Asahi Glass Co., Ltd.)=91/5/4 (parts by weight), was added the compound represented by formula (1) according to the invention (any of Compounds 1-1 to 1-8) or Comparative Compound C-1 or C-2 as shown below in an amount of 0.3 wt % with respect to the Cytop CTL-809M. Thereafter, the mixed solution was applied onto a glass substrate to a film thickness of 1.5 μm and dried.

| SMILES | Solubility |
| --- | --- |
| CC(C)(C)c1cc(CCC(=O)OCC(F)(F)C(F)(F)C(F)(F)C(F)(F)C(F)(F)C(F)(F)C(F)(F)C(F)(F)C(F)(F)F)cc(C(C)(C)C)c1O [Compound 1-1] | Compatible |
| CC(C)(C)c1cc(CCC(=O)OCC(O)CC(F)(F)C(F)(F)C(F)(F)C(F)(F)C(F)(F)C(F)(F)C(F)(F)C(F)(F)F)cc(C(C)(C)C)c1O (stereo not shown) [Compound 1-2] | Compatible |
| Cc1cc(CCC(=O)OCC(F)(F)C(F)(F)C(F)(F)C(F)(F)C(F)(F)C(F)(F)C(F)(F)C(F)(F)C(F)(F)F)cc(C(C)(C)C)c1O [Compound 1-3] | Compatible |
| CC(C)(C)c1cc(CCC(=O)OCC(F)(F)C(F)(F)C(F)(F)C(F)(F)C(F)(F)C(F)(F)C(F)(F)C(F)(F)F)cc(C(C)(C)C)c1O [Compound 1-4] | Compatible |
| CC(C)(C)c1cc(CCC(=O)OCCC(F)(F)C(F)(F)C(F)(F)C(F)(F)C(F)(F)C(F)(F)F)cc(C(C)(C)C)c1O [Compound 1-5] | Compatible |
| Cc1cc(CCC(=O)OCC(F)(F)C(F)(F)C(F)(F)C(F)(F)C(F)(F)C(F)(F)C(F)(F)C(F)(F)C(F)(F)F)cc(C)c1O [Compound 1-6] | Compatible |
| CC(C)(C)c1cc(CCC(=O)OC(CO)CC(F)(F)C(F)(F)C(F)(F)C(F)(F)C(F)(F)C(F)(F)F)cc(C(C)(C)C)c1O (stereo not shown) [Compound 1-7] | Compatible |
| Cc1cc(CCC(=O)OCC(F)(F)C(F)(F)C(F)(F)C(F)(F)C(F)(F)C(F)(F)C(F)(F)C(F)(F)C(F)(F)C(F)(F)F)cc(C)c1O [Compound 1-8] | Compatible |
| CCCCCCCCCCOC(=O)CCc1cc(C(C)(C)C)c(O)c(C(C)(C)C)c1 [Compound C-1, reference compound] | remained partially undissolved; also recorded: Remain partially |
| CC(C)(C)c1cc(CCC(=O)OCC(O)CC(F)(F)C(F)(F)C(F)(F)F)cc(C(C)(C)C)c1O (stereo not shown) [Compound C-2, reference compound] | bled out on the resin surface; also recorded: Bleed out (a compound which bleeds out is denoted by “Bleed out,”) |
